pIC50: −log10 of the molar value. Converted amounts (≈) assume the structure as drawn. The source made the active and inactive calls. The calls are words filed in the database; no cut-off is given here.
Legend:
[1] = molecular target: T1, Bile acid receptor (Homo sapiens) (UniProt Q96RI1); test: Antagonist activity at human FXR in HepG2 cells assessed as reversal of CDCA-induced increase in OSTalpha mRNA expression level at 0.1 to 1 uM dosed after 24 hrs starvation followed by CDCA addition and measured after 18 hrs by RT-PCR analysis
T1 sequence (whole entry): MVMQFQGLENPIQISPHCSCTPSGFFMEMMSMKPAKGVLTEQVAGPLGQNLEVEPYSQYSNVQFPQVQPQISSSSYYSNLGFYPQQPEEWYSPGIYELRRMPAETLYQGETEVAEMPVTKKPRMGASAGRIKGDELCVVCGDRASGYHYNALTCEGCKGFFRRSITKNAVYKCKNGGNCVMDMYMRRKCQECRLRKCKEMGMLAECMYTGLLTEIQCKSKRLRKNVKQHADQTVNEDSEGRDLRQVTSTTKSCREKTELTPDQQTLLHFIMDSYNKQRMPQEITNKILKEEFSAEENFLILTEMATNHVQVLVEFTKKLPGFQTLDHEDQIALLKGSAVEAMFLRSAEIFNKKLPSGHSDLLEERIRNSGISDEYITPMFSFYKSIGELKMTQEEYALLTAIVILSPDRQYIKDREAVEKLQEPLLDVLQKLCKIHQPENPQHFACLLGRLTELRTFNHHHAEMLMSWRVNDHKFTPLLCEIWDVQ

[2] = molecular target: T1, Bile acid receptor (Homo sapiens); test: Antagonist activity at human FXR transfected in HepG2 cells assessed as inhibition of CDCA-induced receptor transactivation at 10 uM by luciferase reporter assay relative to control; format: cell-based; design: scale not given: the % may be the effect or the level left
[3] = molecular target: T2, Bile acid receptor (Homo sapiens, UniProt Q96RI1); test: Antagonist activity at human FXR transfected in HepG2 cells assessed as inhibition of CDCA-induced receptor transactivation by luciferase reporter assay; format: cell-based
T2 sequence (Q96RI1 whole entry): T1 sequence (whole entry)

[4] = molecular target: T1, Bile acid receptor (Homo sapiens); test: Antagonist activity at human FXR assessed as reduction in CDCA-induced FXR-SRC-1 recruitment at 500 to 1000 nM incubated for 30 mins by alpha screen assay
[5] = molecular target: T3, Oxysterols receptor LXR-alpha (Homo sapiens) (UniProt Q13133); test: Agonist activity at human LXRalpha transfected in HepG2 at 10 uM by luciferase reporter assay; format: cell-based
T3 sequence (whole entry): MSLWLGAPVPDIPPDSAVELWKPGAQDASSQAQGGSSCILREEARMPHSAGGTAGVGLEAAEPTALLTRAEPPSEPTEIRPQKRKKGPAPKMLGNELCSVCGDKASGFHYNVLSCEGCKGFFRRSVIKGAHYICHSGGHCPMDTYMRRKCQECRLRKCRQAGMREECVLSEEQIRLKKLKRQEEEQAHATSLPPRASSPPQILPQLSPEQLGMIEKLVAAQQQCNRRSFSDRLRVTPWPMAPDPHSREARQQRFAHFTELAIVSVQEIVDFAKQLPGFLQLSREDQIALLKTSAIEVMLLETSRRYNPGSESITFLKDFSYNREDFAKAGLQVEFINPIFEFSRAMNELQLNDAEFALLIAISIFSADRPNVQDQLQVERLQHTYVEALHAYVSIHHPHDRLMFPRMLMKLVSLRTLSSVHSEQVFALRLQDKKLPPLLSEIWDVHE

[6] = molecular target: T4, Oxysterols receptor LXR-beta (Homo sapiens) (UniProt P55055); test: Agonist activity at human LXRbeta transfected in HepG2 at 10 uM by luciferase reporter assay; format: cell-based
T4 sequence (whole entry): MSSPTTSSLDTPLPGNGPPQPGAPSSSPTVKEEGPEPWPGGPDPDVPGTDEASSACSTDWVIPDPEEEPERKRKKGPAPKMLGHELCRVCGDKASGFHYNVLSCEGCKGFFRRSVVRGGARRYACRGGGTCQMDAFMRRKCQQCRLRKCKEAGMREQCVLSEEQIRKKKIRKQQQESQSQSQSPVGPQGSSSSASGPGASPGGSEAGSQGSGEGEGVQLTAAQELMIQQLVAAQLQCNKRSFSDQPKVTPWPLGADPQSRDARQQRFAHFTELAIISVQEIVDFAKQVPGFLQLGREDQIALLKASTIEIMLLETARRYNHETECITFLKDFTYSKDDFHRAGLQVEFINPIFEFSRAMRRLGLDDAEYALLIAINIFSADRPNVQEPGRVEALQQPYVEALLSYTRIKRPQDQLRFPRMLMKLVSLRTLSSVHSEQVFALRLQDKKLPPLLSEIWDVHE

[7] = molecular target: T5, Nuclear receptor subfamily 1 group I member 2 (Homo sapiens, UniProt O75469); test: Agonist activity at human PXR transfected in HepG2 at 10 uM by luciferase reporter assay; format: cell-based; details: hepg2, 10 µM
T5 sequence (O75469 whole entry): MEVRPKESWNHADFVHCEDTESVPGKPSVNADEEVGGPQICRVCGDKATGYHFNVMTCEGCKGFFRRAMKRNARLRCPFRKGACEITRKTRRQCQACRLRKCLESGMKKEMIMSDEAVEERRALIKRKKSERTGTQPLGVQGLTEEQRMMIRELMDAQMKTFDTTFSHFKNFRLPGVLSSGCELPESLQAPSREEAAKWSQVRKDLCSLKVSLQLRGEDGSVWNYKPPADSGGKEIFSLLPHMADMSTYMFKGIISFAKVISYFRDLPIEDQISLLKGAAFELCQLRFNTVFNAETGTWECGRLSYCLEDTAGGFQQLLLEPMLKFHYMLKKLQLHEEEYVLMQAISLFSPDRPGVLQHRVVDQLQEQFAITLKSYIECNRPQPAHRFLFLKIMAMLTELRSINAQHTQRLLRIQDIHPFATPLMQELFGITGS

[8] = molecular target: T3, Oxysterols receptor LXR-alpha (Homo sapiens); test: Antagonist activity at human LXRalpha transfected in HepG2 at 5 uM in presence of LXRalpha agonist GW3965 by luciferase reporter assay; format: cell-based
[9] = molecular target: T4, Oxysterols receptor LXR-beta (Homo sapiens); test: Antagonist activity at human LXRbeta transfected in HepG2 at 5 uM in presence of LXRbeta agonist GW3965 by luciferase reporter assay; format: cell-based
[10] = molecular target: T5, Nuclear receptor subfamily 1 group I member 2; test: Antagonist activity at human PXR transfected in HepG2 at 5 uM in presence of PXR agonist rifaximin by luciferase reporter assay; format: cell-based; details: hepg2, 5 µM
[11] = Aqueous solubility of compound in pH 7.4 PBS buffer incubated for 24 hrs under gently shaking condition by LC-MS/MS analysis; format: physicochemical
[12] = Lipophilicity, log D of the compound by LC-MS/MS analysis; format: physicochemical; details: octanol/water
[13] = molecular target: T1, Bile acid receptor (Homo sapiens); test: Antagonist activity at human FXR in HepG2 cells assessed as reversal of CDCA-induced increase in SHP mRNA expression level at 0.1 to 1 uM dosed after 24 hrs starvation followed by CDCA addition and measured after 18 hrs by RT-PCR analysis
[14] = molecular target: T1, Bile acid receptor (Homo sapiens); test: Antagonist activity at human FXR in HepG2 cells assessed as reversal of CDCA-induced reduction in CYP7A1 mRNA expression level at 0.1 to 1 uM dosed after 24 hrs starvation followed by CDCA addition and measured after 18 hrs by RT-PCR analysis
[15] = Half life in rat liver microsomes at 1 uM incubated for 2 hrs by LC-MS/MS analysis

- Activity [1]: Active
- Activity [2]: 80%
- pIC50 [3]: 6.24
- inhibition [4]: Active
- Activity [5]: inactive
- Activity [6]: inactive
- Activity [7]: Not Active
- Activity [8]: inactive
- Activity [9]: inactive
- Activity [10]: Not Active
- solubility at 24 h [11]: 200 µM (≈ 55.9 µg/mL)
- logD [12]: 0.34
- Activity [13]: Active
- Activity [14]: Active
- half-life at 1 µM [15]: 1.86 h
SMILES: c1ccc2cc(-c3noc(C4CCNCC4)n3)ccc2c1
